Assay results reported in patent US10072017B2, “Compounds and methods for the treatment of cystic fibrosis” (Flatley Discovery Lab, LLC, priority 2015, dated 2018).

Molecular target: T1, CFTR (Homo sapiens, UniProt P13569, DEL508-508)
T1 construct: Primary CF airway epithelial cells were obtained from the UNC Cystic Fibrosis Tissue Procurement and Cell Culture Core; host or cells: primary CF airway epithelial cells
Experiment: Equivalent current assay in Primary CF airway epithelial cells (NAUC)
Type: cell-based
Conditions: 24 h, normalized to VX809 (3 μM) positive control; for Nauc @ 3 μM: 3 μM test compound; for Nauc @ 10 μM: 10 μM test compound
Outline: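 Primary CF airway epithelia differentiated ≥4 weeks at air-liquid interface, treated basolaterally 24 h at 37 °C with test compounds in combination with VX809, 0.1% DMSO vehicle. Equivalent current recorded after 5 μM benzamil, 10 μM forskolin plus 1 μM VX770, then CFTR-172/bumetanide 20 μM; vehicle-subtracted AUC normalized to 3 μM VX809 (NAUC), median of n≥4, sigmoid fit for EC50.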

T1 sequence (P13569 with tags, fused parts or gaps DEL508-508): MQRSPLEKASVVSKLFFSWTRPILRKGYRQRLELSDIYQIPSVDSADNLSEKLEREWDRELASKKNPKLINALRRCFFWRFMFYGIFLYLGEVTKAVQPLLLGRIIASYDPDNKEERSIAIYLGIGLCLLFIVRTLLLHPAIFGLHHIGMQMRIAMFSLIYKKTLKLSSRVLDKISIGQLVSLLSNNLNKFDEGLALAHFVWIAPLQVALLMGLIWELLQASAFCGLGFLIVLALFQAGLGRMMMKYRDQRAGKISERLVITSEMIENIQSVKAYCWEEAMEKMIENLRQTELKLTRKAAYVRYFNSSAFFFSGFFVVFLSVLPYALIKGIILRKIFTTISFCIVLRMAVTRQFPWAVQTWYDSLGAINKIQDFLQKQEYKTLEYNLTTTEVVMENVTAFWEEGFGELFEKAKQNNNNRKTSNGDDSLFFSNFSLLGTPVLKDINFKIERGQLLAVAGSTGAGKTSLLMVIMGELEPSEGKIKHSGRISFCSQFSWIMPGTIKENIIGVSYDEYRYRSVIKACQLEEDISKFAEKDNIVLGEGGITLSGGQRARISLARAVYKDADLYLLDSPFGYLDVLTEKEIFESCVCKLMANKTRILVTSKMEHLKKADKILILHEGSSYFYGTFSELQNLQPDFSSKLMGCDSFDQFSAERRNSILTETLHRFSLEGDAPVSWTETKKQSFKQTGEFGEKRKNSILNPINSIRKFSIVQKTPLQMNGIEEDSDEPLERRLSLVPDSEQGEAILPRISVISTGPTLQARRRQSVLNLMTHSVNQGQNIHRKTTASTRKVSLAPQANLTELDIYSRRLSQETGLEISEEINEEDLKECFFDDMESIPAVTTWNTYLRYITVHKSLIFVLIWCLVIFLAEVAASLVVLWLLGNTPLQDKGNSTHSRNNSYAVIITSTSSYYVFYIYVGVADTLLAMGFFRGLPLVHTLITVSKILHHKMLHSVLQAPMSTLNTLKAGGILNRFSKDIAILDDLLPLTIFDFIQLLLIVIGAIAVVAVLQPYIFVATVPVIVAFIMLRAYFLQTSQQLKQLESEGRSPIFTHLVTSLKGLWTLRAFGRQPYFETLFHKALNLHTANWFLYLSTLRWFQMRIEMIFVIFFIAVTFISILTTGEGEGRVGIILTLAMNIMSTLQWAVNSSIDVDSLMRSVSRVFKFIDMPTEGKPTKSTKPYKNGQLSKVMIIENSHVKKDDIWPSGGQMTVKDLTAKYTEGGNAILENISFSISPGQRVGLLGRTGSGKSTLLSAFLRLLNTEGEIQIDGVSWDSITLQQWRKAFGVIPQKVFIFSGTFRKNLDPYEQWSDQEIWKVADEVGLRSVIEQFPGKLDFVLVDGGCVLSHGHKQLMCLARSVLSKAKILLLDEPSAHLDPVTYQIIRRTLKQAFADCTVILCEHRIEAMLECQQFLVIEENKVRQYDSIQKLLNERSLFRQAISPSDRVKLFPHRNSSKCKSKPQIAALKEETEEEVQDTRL

Structure (SMILES)	Nauc @ 3 μM	Nauc @ 10 μM
O=C1C2C3C[C@H](O)CN3C3(C(=O)Nc4c(Cl)cc(Cl)cc43)C2C(=O)N1c1cc(Br)cc(Br)c1 (single isomer, unassigned) [Example 56]	++ (NAUC “++” refers to an observed NAUC 170-140% of positive control)	+++ (NAUC “+++” refers to an observed NAUC >170% of positive control)
CC1CC2C3C(=O)N(c4cc(Cl)cc(Cl)c4)C(=O)C3C3(C(=O)Nc4c(Cl)cc(Cl)cc43)N2C1 (stereo not drawn) [Example 71]	+ (NAUC “+” refers to an observed NAUC <140% of positive control)	+++ (NAUC “+++” refers to an observed NAUC >170% of positive control)
O=C1C2C3CCCN3C3(C(=O)Nc4c(C(F)(F)F)cccc43)C2C(=O)N1c1cc(Cl)cc(Cl)c1 (stereo not drawn) [Example 18]	++ (NAUC “++” refers to an observed NAUC 170-140% of positive control)	+ (NAUC “+” refers to an observed NAUC <140% of positive control)
O=C1C2C(Cc3cccc(Cl)c3)NC3(C(=O)Nc4c(Cl)cc(Cl)cc43)C2C(=O)N1c1cc(Cl)cc(Cl)c1 (stereo not drawn) [Example 187]	+++ (NAUC “+++” refers to an observed NAUC >170% of positive control)	++ (NAUC “++” refers to an observed NAUC 170-140% of positive control)
O=C1C2C3C[C@H](Cl)CN3C3(C(=O)Nc4c(Cl)cc(Cl)cc43)C2C(=O)N1c1cc(Cl)cc(Cl)c1 (single isomer, unassigned) [Example 88]	+ (NAUC “+” refers to an observed NAUC <140% of positive control)	+++ (NAUC “+++” refers to an observed NAUC >170% of positive control)
CC(=O)Oc1c(Cl)cc(Cl)cc1N1C(=O)C2C3CCCN3C3(C(=O)Nc4c(Cl)cc(Cl)cc43)C2C1=O (stereo not drawn) [Example 90]	+ (NAUC “+” refers to an observed NAUC <140% of positive control)	+++ (NAUC “+++” refers to an observed NAUC >170% of positive control)
O=C1C2C(Cl)(C(=O)N1c1cc(Cl)cc(Cl)c1)C1CCCN1C21C(=O)Nc2c(Cl)cc(Cl)cc21 (stereo not drawn) [Example 89]	+ (NAUC “+” refers to an observed NAUC <140% of positive control)	++ (NAUC “++” refers to an observed NAUC 170-140% of positive control)
[2H]C([2H])([2H])C1(C([2H])([2H])[2H])CC2C3C(=O)N(c4cc(Cl)c(OC)c(Cl)c4)C(=O)C3C3(C(=O)Nc4c(Cl)cc(Cl)cc43)N2C1 (stereo not drawn) [Example 214]	+++ (NAUC “+++” refers to an observed NAUC >170% of positive control)	+++ (NAUC “+++” refers to an observed NAUC >170% of positive control)
C[C@]1(O)CC2C3C(=O)N(c4cccc(F)n4)C(=O)C3C3(C(=O)Nc4c(Cl)cc(Cl)cc43)N2C1 (stereo partly drawn) [Example 233]	+++ (NAUC “+++” refers to an observed NAUC >170% of positive control)	++ (NAUC “++” refers to an observed NAUC 170-140% of positive control)
O=C1C2C3CCCN3C3(C(=O)Nc4c(Cl)cc(Cl)cc43)C2C(=O)N1c1cc(F)cc(Cl)c1 (stereo not drawn) [Example 28]	++ (NAUC “++” refers to an observed NAUC 170-140% of positive control)	+++ (NAUC “+++” refers to an observed NAUC >170% of positive control)
COc1cc(Cl)cc(N2C(=O)C3C4CCCN4C4(C(=O)Nc5c(Cl)cc(Cl)cc54)C3C2=O)c1 (single isomer, unassigned) [Example 104]	+ (NAUC “+” refers to an observed NAUC <140% of positive control)	++ (NAUC “++” refers to an observed NAUC 170-140% of positive control)
C=C1CC2C3C(=O)N(c4cc(Cl)cc(Cl)c4)C(=O)C3C3(C(=O)Nc4c(Cl)cc(Cl)cc43)N2C1 (single isomer, unassigned) [Example 144]	+++ (NAUC “+++” refers to an observed NAUC >170% of positive control)	+++ (NAUC “+++” refers to an observed NAUC >170% of positive control)
N#C[C@H]1CC2C3C(=O)N(c4cc(Cl)cc(Cl)c4)C(=O)C3C3(C(=O)Nc4c(Cl)cc(Cl)cc43)N2C1 (stereo partly drawn) [Example 68]	+ (NAUC “+” refers to an observed NAUC <140% of positive control)	+++ (NAUC “+++” refers to an observed NAUC >170% of positive control)
O=C(O)c1cccc(C2C3C(=O)N(c4cc(Cl)cc(Cl)c4)C(=O)C3C3CCCN32)c1 (stereo not drawn) [Example 150]	+ (NAUC “+” refers to an observed NAUC <140% of positive control)	++ (NAUC “++” refers to an observed NAUC 170-140% of positive control)
C[C@@]1(F)CC2C3C(=O)N(c4cc(Cl)cc(Cl)n4)C(=O)C3C3(C(=O)Nc4c(Cl)cc(Cl)cc43)N2C1 (stereo partly drawn) [Example 173]	+++ (NAUC “+++” refers to an observed NAUC >170% of positive control)	+++ (NAUC “+++” refers to an observed NAUC >170% of positive control)
COC1(OC)CC2C3C(=O)N(c4cc(Cl)cc(Cl)c4)C(=O)C3C3(C(=O)Nc4c(Cl)cc(Cl)cc43)N2C1 (stereo not drawn) [Example 167]	+ (NAUC “+” refers to an observed NAUC <140% of positive control)	++ (NAUC “++” refers to an observed NAUC 170-140% of positive control)
O=C1C2C3CC(=C(F)F)CN3C3(C(=O)Nc4c(Cl)cc(Cl)cc43)C2C(=O)N1c1cc(Cl)cc(Cl)c1 (single isomer, unassigned) [Example 116]	+++ (NAUC “+++” refers to an observed NAUC >170% of positive control)	+++ (NAUC “+++” refers to an observed NAUC >170% of positive control)
Cc1csc(N2C(=O)C3C4CCCN4C4(C(=O)Nc5c(Cl)cc(Cl)cc54)C3C2=O)n1 (stereo not drawn) [Example 101]	+ (NAUC “+” refers to an observed NAUC <140% of positive control)	+++ (NAUC “+++” refers to an observed NAUC >170% of positive control)
O=C1C2C3C[C@H](O)CN3C3(C(=O)Nc4ccc(C(F)(F)F)cc43)C2C(=O)N1c1cc(Cl)cc(Cl)c1 (stereo partly drawn) [Example 42]	++ (NAUC “++” refers to an observed NAUC 170-140% of positive control)	++ (NAUC “++” refers to an observed NAUC 170-140% of positive control)
COc1cc(Cl)cc(N2C(=O)C3C4C[C@](C)(F)CN4C4(C(=O)Nc5c(Cl)cc(Cl)cc54)C3C2=O)c1 (single isomer, unassigned) [Example 254]	+++ (NAUC “+++” refers to an observed NAUC >170% of positive control)	+++ (NAUC “+++” refers to an observed NAUC >170% of positive control)
N[C@@H]1CC2C3C(=O)N(c4cc(Cl)cc(Cl)c4)C(=O)C3C3(C(=O)Nc4c(Cl)cc(Cl)cc43)N2C1 (stereo partly drawn) [Example 60]	+ (NAUC “+” refers to an observed NAUC <140% of positive control)	++ (NAUC “++” refers to an observed NAUC 170-140% of positive control)
O=C1C2C3CCCN3C3(C(=O)Nc4c(Cl)cc(Cl)cc43)C2C(=O)N1c1cccc2c1OC(F)(F)O2 (stereo not drawn) [Example 23]	++ (NAUC “++” refers to an observed NAUC 170-140% of positive control)	+ (NAUC “+” refers to an observed NAUC <140% of positive control)
COc1cc(Cl)cc(N2C(=O)C3C4C[C@](C)(O)CN4C4(C(=O)Nc5c(Cl)cc(Cl)cc54)C3C2=O)c1 (stereo partly drawn) [Example 158]	++ (NAUC “++” refers to an observed NAUC 170-140% of positive control)	+++ (NAUC “+++” refers to an observed NAUC >170% of positive control)
O=C1C2C3CCCN3C3(C(=O)Nc4c(Cl)cc(Cl)cc43)C2C(=O)N1c1cc(Br)cc(Br)c1 (stereo not drawn) [Example 27]	++ (NAUC “++” refers to an observed NAUC 170-140% of positive control)	++ (NAUC “++” refers to an observed NAUC 170-140% of positive control)
CC1(C)CC2C3C(=O)N(c4cc(Cl)c(OC(F)F)c(Cl)c4)C(=O)C3C3(C(=O)Nc4c(Cl)cc(Cl)cc43)N2C1 (single isomer, unassigned) [Example 255]	+++ (NAUC “+++” refers to an observed NAUC >170% of positive control)	+++ (NAUC “+++” refers to an observed NAUC >170% of positive control)
O=C1C2C3CC(C(F)F)CN3C3(C(=O)Nc4c(Cl)cc(Cl)cc43)C2C(=O)N1c1cc(Cl)cc(Cl)n1 (stereo not drawn) [Example 131]	+ (NAUC “+” refers to an observed NAUC <140% of positive control)	++ (NAUC “++” refers to an observed NAUC 170-140% of positive control)
Cc1cccc2c1NC(=O)C21C2C(=O)N(c3cc(Cl)cc(Cl)c3)C(=O)C2C2CCCN21 (stereo not drawn) [Example 12]	+ (NAUC “+” refers to an observed NAUC <140% of positive control)	++ (NAUC “++” refers to an observed NAUC 170-140% of positive control)
O=C1C2C3C[C@H](O)CN3C3(C(=O)Nc4c(Br)cc(Br)cc43)C2C(=O)N1c1cc(Cl)cc(Cl)c1 (stereo partly drawn) [Example 40]	+++ (NAUC “+++” refers to an observed NAUC >170% of positive control)	+++ (NAUC “+++” refers to an observed NAUC >170% of positive control)
O=C1C2C3CC(C(F)F)CN3C3(C(=O)Nc4c(Cl)cc(Cl)cc43)C2C(=O)N1c1cc(Cl)cc(Cl)c1 (stereo not drawn) [Example 99]	+++ (NAUC “+++” refers to an observed NAUC >170% of positive control)	+++ (NAUC “+++” refers to an observed NAUC >170% of positive control)
C[C@]1(O)CC2C3C(=O)N(c4cc(Cl)cc(Cl)c4)C(=O)C3C3(C(=O)Nc4c(Cl)cc(Cl)cc43)N2C1 (stereo partly drawn) [Example 156]	++ (NAUC “++” refers to an observed NAUC 170-140% of positive control)	+++ (NAUC “+++” refers to an observed NAUC >170% of positive control)
